Here are results for 1 compound from article PMC6271731, “Multitarget Molecular Hybrids of Cinnamic Acids” (Molecules, 2014).

For the assay, the target named is T1, pancreatic bovine trypsin (Bos taurus, UniProt P00760).
T1 construct: purchased Sigma Chemical, Co. (St. Louis, MO, USA)
T1 sequence (P00760 24-246): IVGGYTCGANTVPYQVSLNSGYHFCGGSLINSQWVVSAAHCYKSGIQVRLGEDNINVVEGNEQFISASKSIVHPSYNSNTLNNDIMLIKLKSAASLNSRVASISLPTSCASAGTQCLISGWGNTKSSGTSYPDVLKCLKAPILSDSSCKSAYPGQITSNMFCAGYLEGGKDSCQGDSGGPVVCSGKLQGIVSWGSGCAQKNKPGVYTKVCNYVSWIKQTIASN
The assay is described as follows: Inhibition of trypsin induced proteolysis in vitro. Format: biochemical. Conditions: bovine albumin substrate, pH 7.6, 37 °C; read-out: IC50 μM Trypsin Inh.

SMILES strings stand for the structures.

On to `CC(=O)Nc1ccc(OC(=O)/C=C/c2cccc(Oc3ccccc3)c2)cc1` [Compound 2a, (E)-4-Acetamidophenyl 3-(3-phenoxyphenyl)acrylate], for which the IC50 was found to be 10 µM.
